This assay addresses T1, 11β-HSD1 (Homo sapiens, UniProt P28845).
T1 construct: detecting cortisol generated from cortisterone by human liver microsomes; from tissue; host or cells: human liver microsomes
Description: In vitro inhibition of 11β-HSD1, HTRF detection of cortisol generated from cortisone by human liver microsomes. The format is biochemical. As to conditions: 1 hour at 37° C., pH 6.0, NADPH 200 μM, cortisone 80 nM, inhibition relative to carbenoxolone signal. The protocol: Cortisol generated in the reaction is then detected with a competitive immunoassay, involving two HTRF conjugates: cortisol linked to XL665 and anti-cortisol antibody labeled with Europium cryptate. The incubation period for detection reaction was typically 2 hours. […] The ratio of the two emission signals is then calculated (Em665*10000/Em615). […] Each assay also contained a calibration curve with cortisol to transform the fluorescent data into cortisol concentrations. Percent inhibition of each compound was determined relative to the carbenoxolone signal and IC50 curves were generated.

The structures appear in SMILES notation. Like-named read-outs stand apart in the source and are kept apart here.

T1 sequence (P28845 whole entry): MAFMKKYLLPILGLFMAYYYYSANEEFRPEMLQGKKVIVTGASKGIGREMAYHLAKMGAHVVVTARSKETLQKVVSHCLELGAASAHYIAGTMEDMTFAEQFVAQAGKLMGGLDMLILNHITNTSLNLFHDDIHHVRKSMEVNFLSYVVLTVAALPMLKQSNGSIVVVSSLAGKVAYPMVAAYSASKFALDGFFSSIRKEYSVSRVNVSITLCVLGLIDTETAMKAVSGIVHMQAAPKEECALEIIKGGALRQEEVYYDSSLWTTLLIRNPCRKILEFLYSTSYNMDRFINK

In the case of `C[C@H]1[C@H]2Cc3ccccc3[C@]1(C)CCN2C(=O)c1ccc2nc[nH]c2c1` (racemic) [Example 77, (3H-Benzoimidazol-5-yl)-(6,11-dimethyl-1,2,5,6-tetrahydro-4H-2,6-methano-benzo[d]azocin-3-yl)-methanone], the IC50 (11β-HSD IC50 (nM)) worked out at 144 nM.

`CC1(C)[C@H]2Cc3ccccc3[C@]1(C)CCN2C(=O)c1ccc2nc[nH]c2c1` (racemic) [Example 82, (3H-Benzoimidazol-5-yl)-[(2R,6S)-6,11,11-trimethyl-1,2,5,6-tetrahydro-4H-2,6-methano-benzo[d]azocin-3-yl]-methanone] yielded a 50% inhibitory concentration (IC50) (11β-HSD IC50 (nM)) of 56 nM.

In turn, `CC[C@@H]1[C@H]2Cc3ccc(O)cc3[C@]1(CC)CCN2C(=O)c1ccc2nc[nH]c2c1` (racemic) [Example 85, (3H-Benzoimidazol-5-yl)-(6,11-diethyl-8-hydroxy-1,2,5,6-tetrahydro-4H-2,6-methano-benzo[d]azocin-3-yl)-methanone] displayed a 50% inhibitory concentration (IC50) (11β-HSD IC50 (nM)) of 89 nM.

For `CC[C@H]1[C@H]2Cc3ccc(O)cc3[C@]1(CC)CCN2C(=O)c1ccc2nc[nH]c2c1` (racemic) [Example 86, (3H-Benzoimidazol-5-yl)-(6,11-diethyl-8-hydroxy-1,2,5,6-tetrahydro-4H-2,6-methano-benzo[d]azocin-3-yl)-methanone], the half-inhibitory concentration (IC50) (11β-HSD IC50 (nM)) was determined as 2400 nM.

Where the note is “11β-HSD IC50 (nM)”, `CC[C@]12CCN(C(=O)c3ccc4nc[nH]c4c3)[C@H](Cc3ccc(O)cc31)[C@@H]2C` (racemic) [Example 87, (3H-Benzoimidazol-5-yl)-(6-ethyl-8-hydroxy-11-methyl-1,2,5,6-tetrahydro-4H-2,6-methano-benzo[d]azocin-3-yl)-methanone] registered a concentration for half-maximal inhibition (IC50) of 622 nM.

With `CC[C@]12CCN(C(=O)c3ccc4nc[nH]c4c3)[C@H](Cc3ccc(O)cc31)[C@H]2C` (racemic) [Example 200, (3H-Benzoimidazol-5-yl)-(6-ethyl-8-hydroxy-11-methyl-1,2,5,6-tetrahydro-4H-2,6-methano-benzo[d]azocin-3-yl)-methanone], the IC50 (11β-HSD IC50 (nM)) turned out to be 117 nM.

In turn, `C[C@@H]1C[C@]2(C)C[C@@H](Cc3ccccc32)N1C(=O)c1ccc2nc[nH]c2c1` (racemic) [Example 253, (3H-Benzoimidazol-5-yl)-(4,6-dimethyl 1,2,5,6-tetrahydro-4H-2,6-methano-benzo[d]azocin-3-yl)-methanone] displayed an IC50 (11β-HSD IC50 (nM)) of 78 nM.

Compound `C[C@@H]1CN(C(=O)c2ccc3nc[nH]c3c2)[C@@H]2Cc3ccccc3[C@@]1(C)C2` (racemic) [Example 294, (3H-Benzoimidazol-5-yl)-(5,6-dimethyl-1,2,5,6-tetrahydro-4H-2,6-methano-benzo[d]azocin-3-yl)-methanone] displayed an IC50 (11β-HSD IC50 (nM)) of 146 nM.

As for `O=C(c1ccc2nc[nH]c2c1)N1CC[C@@H]2C[C@H]1Cc1cccnc12` (racemic) [Example 325, (3H-Benzoimidazol-5-yl)-(5,8,9,10-tetrahydro-6H-6,10-methano-pyrido[3,2-d]azocin-7-yl)-methanone], the IC50 (read-out: 11β-HSD IC50) is 771 nM.

Turning to `COc1cc2c(cc1C)C[C@@H]1N(C(=O)c3ccc4nc[nH]c4c3)CC[C@@]2(C)C1(C)C` (stereo in doubt) [Example 61, (3H-Benzoimidazol-5-yl)-[(2S,6R)-8-methoxy-6,9,11,11-tetramethyl-1,2,5,6-tetrahydro-4H-2,6-methano-benzo[d]azocin-3-yl]-methanone], half-maximal inhibition (11β-HSD IC50 (nM)) (IC50) was put at 798 nM.

For the setting “11β-HSD IC50 (nM)”, `COc1cc2c(cc1C)C[C@H]1N(C(=O)c3ccc4nc[nH]c4c3)CC[C@]2(C)C1(C)C` (stereo in doubt) [Example 62, (3H-Benzoimidazol-5-yl)-[(2R,6S)-8-methoxy-6,9,11,11-tetramethyl-1,2,5,6-tetrahydro-4H-2,6-methano-benzo[d]azocin-3-yl]-methanone] displayed a 50% inhibitory concentration (IC50) of 109 nM.

In the case of `COc1cc2c(cc1C)[C@]1(C)CCN(C(=O)c3ccc4nc[nH]c4c3)[C@H](C2)C1(C)C` (stereo in doubt) [Example 63, (3H-Benzoimidazol-5-yl)-[(2R,6S)-9-methoxy-6,8,11,11-tetramethyl-1,2,5,6-tetrahydro-4H-2,6-methano-benzo[d]azocin-3-yl]-methanone], under “11β-HSD IC50 (nM)”, inhibition was half-maximal at 216 nM (IC50).

`COc1cc2c(cc1C)[C@@]1(C)CCN(C(=O)c3ccc4nc[nH]c4c3)[C@@H](C2)C1(C)C` (stereo in doubt) [Example 64, (3H-Benzoimidazol-5-yl)-[(2S,6R)-9-methoxy-6,8,11,11-tetramethyl-1,2,5,6-tetrahydro-4H-2,6-methano-benzo[d]azocin-3-yl]-methanone] showed an IC50 (11β-HSD IC50 (nM)) of 753 nM.

`Cc1cc2c(cc1O)[C@]1(C)CCN(C(=O)c3ccc4nc[nH]c4c3)[C@H](C2)C1(C)C` (stereo in doubt) [Example 65, (3H-Benzoimidazol-5-yl)-[(2R,6S)-8-hydroxy-6,9,11,11-tetramethyl-1,2,5,6-tetrahydro-4H-2,6-methano-benzo[d]azocin-3-yl]-methanone]: where the note is “11β-HSD IC50 (nM)”, the IC50 came to 29 nM.

In the case of `Cc1cc2c(cc1O)[C@@]1(C)CCN(C(=O)c3ccc4nc[nH]c4c3)[C@@H](C2)C1(C)C` (stereo in doubt) [Example 66, (3H-Benzoimidazol-5-yl)-[(2S,6R)-8-hydroxy-6,9,11,11-tetramethyl-1,2,5,6-tetrahydro-4H-2,6-methano-benzo[d]azocin-3-yl]-methanone], the IC50 (11β-HSD IC50 (nM)) worked out at 822 nM.

As for `Cc1cc2c(cc1O)C[C@H]1N(C(=O)c3ccc4nc[nH]c4c3)CC[C@]2(C)C1(C)C` (stereo in doubt) [Example 67, (3H-Benzoimidazol-5-yl)-[(2R,6S)-9-hydroxy-6,8,11,11-tetramethyl-1,2,5,6-tetrahydro-4H-2,6-methano-benzo[d]azocin-a 3-yl]-methanone], half-maximal inhibition (11β-HSD IC50 (nM)) (IC50) required 32 nM.

For `Cc1cc2c(cc1O)C[C@@H]1N(C(=O)c3ccc4nc[nH]c4c3)CC[C@@]2(C)C1(C)C` (stereo in doubt) [Example 68, (3H-Benzoimidazol-5-yl)-[(2S,6R)-9-hydroxy-6,8,11,11-tetramethyl-1,2,5,6-tetrahydro-4H-2,6-methano-benzo[d]azocin-3-yl]-methanone], the midpoint of inhibition (11β-HSD IC50 (nM)), the IC50, lay at 372 nM.

For the compound `CC1(C)[C@H]2Cc3c(O)cccc3[C@]1(C)CCN2C(=O)c1ccccc1` [Example 1, [(2R,6S)-10-Hydroxy-6,11,11-trimethyl-1,2,5,6-tetrahydro-4H-2,6-methano-benzo[d]azocin-3-yl]-phenyl-methanone], for the setting “11β-HSD IC50 (nM)”, the IC50 was determined as 285 nM.

In turn, `CC1(C)[C@H]2Cc3c(O)cccc3[C@]1(C)CCN2C(=O)c1ccccc1Cl` [Example 2, (2-Chloro-phenyl)-[(2R,6S)-10-hydroxy-6,11,11-trimethyl-1,2,5,6-tetrahydro-4H-2,6-methano-benzo[d]azocin-3-yl]-methanone] yielded an IC50 (11β-HSD IC50 (nM)) of 741 nM.

Turning to `CC1(C)[C@H]2Cc3c(O)cccc3[C@]1(C)CCN2C(=O)c1ccc(C(N)=O)cc1` [Example 3, 4-[(2R,6S)-10-Hydroxy-6,11,11-trimethyl-1,2,5,6-tetrahydro-4H-2,6-methano-benzo[d]azocine-3-carbonyl]benzamide], inhibition (11β-HSD IC50 (nM)) was half-maximal at 85 nM (IC50).

`CC1(C)[C@H]2Cc3c(O)cccc3[C@]1(C)CCN2C(=O)c1ccc2nc[nH]c2c1` [Example 4, (3H-Benzoimidazol-5-yl)-[(2R,6S)-10-hydroxy-6,11,11-trimethyl-1,2,5,6-tetrahydro-4H-2,6-methano-benzo[d]azocin-3-yl]-methanone] showed an IC50 (11β-HSD IC50 (nM)) of 56 nM.

Compound `Cc1ccccc1C(=O)N1CC[C@@]2(C)c3cccc(O)c3C[C@@H]1C2(C)C` [Example 5, [(2R,6S)-10-Hydroxy-6,11,11-trimethyl-1,2,5,6-tetrahydro-4H-2,6-methano-benzo[d]azocin-3-yl]-o-tolyl-methanone] displayed an IC50 (11β-HSD IC50 (nM)) of 3100 nM.

Turning to `COc1ccccc1C(=O)N1CC[C@@]2(C)c3cccc(O)c3C[C@@H]1C2(C)C` [Example 6, [(2R,6S)-10-Hydroxy-6,11,11-trimethyl-1,2,5,6-tetrahydro-4H-2,6-methano-benzo[d]azocin-3-yl)-(2-methoxy-phenyl]-methanone], the IC50 (11β-HSD IC50 (nM)) turned out to be 1060 nM.

`Cc1cccc(C(=O)N2CC[C@@]3(C)c4cccc(O)c4C[C@@H]2C3(C)C)c1` [Example 7, [(2R,6S)-10-Hydroxy-6,11,11-trimethyl-1,2,5,6-tetrahydro-4H-2,6-methano-benzo[d]azocin-3-yl]-m-tolyl-methanone]: the IC50 (11β-HSD IC50 (nM)) was 262 nM.

Compound `CC1(C)[C@H]2Cc3c(O)cccc3[C@]1(C)CCN2C(=O)c1ccccc1C#N` [Example 8, 2-[(2R,6S)-10-Hydroxy-6,11,11-trimethyl-1,2,5,6-tetrahydro-4H-2,6-methano-benzo[d]azocine-3-carbonyl]-benzonitrile] showed an IC50 (11β-HSD IC50 (nM)) of 3360 nM.

In the case of `CC(=O)Nc1cccc(C(=O)N2CC[C@@]3(C)c4cccc(O)c4C[C@@H]2C3(C)C)c1` [Example 9, N-{3-[(2R,6S)-10-Hydroxy-6,11,11-trimethyl-1,2,5,6-tetrahydro-4H-2,6-methano-benzo[d]azocine-3-carbonyl]-phenyl}-acetamide], the concentration for half-maximal inhibition (IC50) (11β-HSD IC50 (nM)) is 1980 nM.

`CC1(C)[C@H]2Cc3c(O)cccc3[C@]1(C)CCN2C(=O)c1cccc(C#N)c1` [Example 10, 3-[(2R,6S)-10-Hydroxy-6,11,11-trimethyl-1,2,5,6-tetrahydro-4H-2,6-methano-benzo[d]azocine-3-carbonyl]-benzonitrile]: for the setting “11β-HSD IC50 (nM)”, half-maximal inhibition (IC50) required 1780 nM.

Consider `COc1cccc(C(=O)N2CC[C@@]3(C)c4cccc(O)c4C[C@@H]2C3(C)C)c1` [Example 11, [(2R,6S)-10-Hydroxy-6,11,11-trimethyl-1,2,5,6-tetrahydro-4H-2,6-methano-benzo[d]azocin-3-yl]-(3-methoxy-phenyl)-methanone], for which it took 530 nM to reach half-maximal inhibition (11β-HSD IC50 (nM)) (IC50).

These data come from patent US8859580B2 (Boehringer Ingelheim International GmbH, priority 2007, dated 2014).
